“And” between values parts separate entries of the source, which are not always exact repeats. Identical values can stand only once. The source made the active and inactive calls. How the calls were made is not given here.
Tested on: rodent lifetime carcinogenesis bioassay, tumor incidence TD50
Test: carcinogenic potency in animals, long-term in vivo studies, CPDB compilation (AID 1745844)
[1] = rat, strain BR 46, males, i.v., site: any site (literature study), lesion: several types, types named in the paper, dosed 52 weeks, study length 104 weeks

CCCc1ccc2c(c1)OCO2
TD50 (mouse, strain B6AKF1, females, oral dosing, site: any site (literature study), lesion: several types, types named in the paper, dosed 81 weeks, study length 81 weeks): 305 mg/kg/day
TD50 (mouse, strain B6AKF1, females, oral dosing, site: liver, lesion: angioma, dosed 81 weeks, study length 81 weeks): 1400 mg/kg/day
TD50 (mouse, strain B6AKF1, females, oral dosing, site: lung, lesion: adenoma, dosed 81 weeks, study length 81 weeks): 739 mg/kg/day
TD50 (mouse, strain B6AKF1, females, oral dosing, site: stomach, lesion: papilloma, dosed 81 weeks, study length 81 weeks): 84.7 mg/kg/day
TD50 (mouse, strain B6AKF1, males, oral dosing, site: any site (literature study), lesion: several types, types named in the paper, dosed 81 weeks, study length 81 weeks): 86.6 mg/kg/day
TD50 (mouse, strain B6AKF1, males, oral dosing, site: liver, lesion: hepatoma, dosed 81 weeks, study length 81 weeks): 117 mg/kg/day
TD50 (mouse, strain B6AKF1, males, oral dosing, site: lung, lesion: adenoma, dosed 81 weeks, study length 81 weeks): 323 mg/kg/day
TD50 (mouse, strain B6AKF1, males, oral dosing, site: lung, lesion: several types, types named in the paper, dosed 81 weeks, study length 81 weeks): 448 mg/kg/day
TD50 (mouse, strain B6C3F1, females, oral dosing, site: any site (literature study), lesion: several types, types named in the paper, dosed 81 weeks, study length 81 weeks): 170 mg/kg/day
TD50 (mouse, strain B6C3F1, females, oral dosing, site: lung, lesion: adenoma, dosed 81 weeks, study length 81 weeks): 230 mg/kg/day
TD50 (mouse, strain B6C3F1, males, oral dosing, site: any site (literature study), lesion: several types, types named in the paper, dosed 81 weeks, study length 81 weeks): 107 mg/kg/day
TD50 (mouse, strain B6C3F1, males, oral dosing, site: liver, lesion: hepatoma, dosed 81 weeks, study length 81 weeks): 90 mg/kg/day
TD50 (mouse, strain B6C3F1, males, oral dosing, site: lung, lesion: adenoma, dosed 81 weeks, study length 81 weeks): 358 mg/kg/day
TD50 (rat, strain Osborne-Mendel, both sexes, in feed, site: esophagus, lesion: several types, types named in the paper, dosed 104 weeks, study length 104 weeks): 143 mg/kg/day

[Ge+4].[Na+].[Na+].[O-2].[O-2].[O-2]
carcinogen call (mouse, strain Charles River CD1, both sexes, in drinking water, site: any site (literature study), lesion: benign tumor, dosed 104 weeks, study length 104 weeks): negative (inactive)
carcinogen call (mouse, strain Charles River CD1, both sexes, in drinking water, site: any site (literature study), lesion: malignant tumor, dosed 104 weeks, study length 104 weeks): negative (inactive)
carcinogen call (mouse, strain Charles River CD1, both sexes, in drinking water, site: any site (literature study), lesion: several types, types named in the paper, dosed 104 weeks, study length 104 weeks): negative (inactive)
carcinogen call (mouse, strain Charles River CD1, both sexes, in drinking water, site: liver, lesion: several types, types named in the paper, dosed 104 weeks, study length 104 weeks): negative (inactive)
carcinogen call (mouse, strain Charles River CD1, both sexes, in drinking water, site: lung, lesion: several types, types named in the paper, dosed 104 weeks, study length 104 weeks): negative (inactive)
carcinogen call (rat, strain Long-Evans BLU:(LE), both sexes, in drinking water, site: any site (literature study), lesion: malignant tumor, dosed 149 weeks, study length 149 weeks): negative (inactive)
carcinogen call (rat, strain Long-Evans BLU:(LE), both sexes, in drinking water, site: any site (literature study), lesion: one or several types, types not named, dosed 149 weeks, study length 149 weeks): negative (inactive)
carcinogen call (rat, strain Long-Evans BLU:(LE), both sexes, in drinking water, site: liver, lesion: one or several types, types not named, dosed 149 weeks, study length 149 weeks): negative (inactive)

CC(C)(C)NC(=O)[C@H]1CC[C@H]2[C@@H]3CC[C@H]4NC(=O)C=C[C@]4(C)[C@H]3CC[C@]12C
TD50 (mouse, strain Charles River CD1, males, by gavage, site: testis, lesion: Leydig-cell adenoma, dosed 83 weeks, study length 83 weeks): 326 mg/kg/day

O=C(Nc1cccc2c(=O)cc(-c3nn[nH]n3)oc12)c1ccc(OCCCCc2ccccc2)cc1
carcinogen call (rat, strain Jcl:SD, females, by gavage, site: liver, lesion: one or several types, types not named, dosed 52 weeks, study length 52 weeks): negative (inactive)
carcinogen call (rat, strain Jcl:SD, females, by gavage, site: liver, lesion: one or several types, types not named, dosed 52 weeks, study length 56 weeks): negative (inactive)
carcinogen call (rat, strain Jcl:SD, males, by gavage, site: liver, lesion: neoplastic nodule, dosed 52 weeks, study length 56 weeks): negative (inactive)
carcinogen call (rat, strain Jcl:SD, males, by gavage, site: liver, lesion: one or several types, types not named, dosed 52 weeks, study length 52 weeks): negative (inactive)

OCC(O)CO
TD50 (rat, strain Long-Evans, both sexes, in feed, site: any site (literature study), lesion: several types, types named in the paper, dosed 105 weeks, study length 105 weeks): 38300 mg/kg/day (inactive) and 12300 mg/kg/day (inactive)

S=c1nc[nH]c2nc[nH]c12
TD50 [1]: 58.1 mg/kg/day (inactive)
TD50 (rat, strain F344/DuCrj, females, in feed, site: adrenal gland, lesion: pheochromocytoma, dosed 104 weeks, study length 113 weeks): 22.5 mg/kg/day
TD50 (rat, strain F344/DuCrj, females, in feed, site: any site (literature study), lesion: malignant tumor, dosed 104 weeks, study length 113 weeks): 10.3 mg/kg/day
TD50 (rat, strain F344/DuCrj, females, in feed, site: any site (literature study), lesion: several types, types named in the paper, dosed 104 weeks, study length 113 weeks): 4.74 mg/kg/day
TD50 (rat, strain F344/DuCrj, females, in feed, site: central nervous system, lesion: several types, types named in the paper, dosed 104 weeks, study length 113 weeks): 34.1 mg/kg/day
TD50 (rat, strain F344/DuCrj, females, in feed, site: liver, lesion: hepatocellular carcinoma, dosed 104 weeks, study length 113 weeks): 139 mg/kg/day
TD50 (rat, strain F344/DuCrj, females, in feed, site: uterus, lesion: adenocarcinoma, dosed 104 weeks, study length 113 weeks): 34.1 mg/kg/day

O=NN1CCCC1c1cccnc1 (configuration not stated)
TD50 (hamster, strain Syrian Golden, females, in drinking water, site: respiratory system, lesion: papilloma, dosed 31 weeks, study length 96 weeks): 11.5 mg/kg/day
TD50 (hamster, strain Syrian Golden, males, in drinking water, site: liver, lesion: angiosarcoma, dosed 31 weeks, study length 96 weeks): 34.4 mg/kg/day
TD50 (hamster, strain Syrian Golden, males, in drinking water, site: respiratory system, lesion: papilloma, dosed 31 weeks, study length 96 weeks): 10.1 mg/kg/day

Cn1nc(CO)nc1NCCCOc1cccc(CN2CCCCC2)c1
TD50 (rat, strain Charles River CD (Sprague-Dawley), females, in feed, site: stomach, glandular, fundic region, lesion: carcinoid tumor, malignant, dosed 115 weeks, study length 115 weeks): 272 mg/kg/day
TD50 (rat, strain Charles River CD (Sprague-Dawley), males, in feed, site: stomach, glandular, fundic region, lesion: carcinoid tumor, malignant, dosed 115 weeks, study length 115 weeks): 2010 mg/kg/day

CCNNC(=O)[C@@H]1[C@H](c2cc(OC)c(OC)c(OC)c2)c2cc3c(cc2[C@H](O)[C@H]1CO)OCO3
carcinogen call [1]: negative (inactive)

O=[N+]([O-])c1ccc(-c2nc(N(CCO)CCO)c3ccccc3n2)s1
TD50 (rat, strain Sprague-Dawley, males, in feed, site: any site (literature study), lesion: several types, types named in the paper, dosed 50 weeks, study length 52 weeks): 1.1 mg/kg/day
TD50 (rat, strain Sprague-Dawley, males, in feed, site: mammary gland, lesion: adenocarcinoma, dosed 50 weeks, study length 52 weeks): 11.5 mg/kg/day
TD50 (rat, strain Sprague-Dawley, males, in feed, site: mammary gland, lesion: several types, types named in the paper, dosed 50 weeks, study length 52 weeks): 6.45 mg/kg/day
TD50 (rat, strain Sprague-Dawley, males, in feed, site: small intestine, lesion: leiomyosarcoma, dosed 50 weeks, study length 52 weeks): 3.6 mg/kg/day
TD50 (rat, strain Sprague-Dawley, males, in feed, site: small intestine, lesion: sarcoma, dosed 50 weeks, study length 52 weeks): 3.14 mg/kg/day

NC(=O)N(CCCO)N=O
TD50 (rat, strain Fischer 344, females, by gavage, site: forestomach, lesion: one or several types, types not named, dosed 30 weeks, study length 104 weeks): 1.27 mg/kg/day
TD50 (rat, strain Fischer 344, females, by gavage, site: liver, lesion: one or several types, types not named, dosed 30 weeks, study length 104 weeks): 1.27 mg/kg/day
TD50 (rat, strain Fischer 344, males, by gavage, site: forestomach, lesion: one or several types, types not named, dosed 30 weeks, study length 104 weeks): 1.98 mg/kg/day
TD50 (rat, strain Fischer 344, males, by gavage, site: forestomach, lesion: one or several types, types not named, dosed 40 weeks, study length 104 weeks): 0.866 mg/kg/day
TD50 (rat, strain Fischer 344, males, by gavage, site: liver, lesion: one or several types, types not named, dosed 30 weeks, study length 104 weeks): 3.78 mg/kg/day
TD50 (rat, strain Fischer 344, males, by gavage, site: liver, lesion: one or several types, types not named, dosed 40 weeks, study length 104 weeks): 1.24 mg/kg/day
TD50 (rat, strain Fischer 344, males, by gavage, site: lung, lesion: several types, types named in the paper, dosed 30 weeks, study length 104 weeks): 1.79 mg/kg/day
TD50 (rat, strain Fischer 344, males, by gavage, site: skin, lesion: several types, types named in the paper, dosed 30 weeks, study length 104 weeks): 0.668 mg/kg/day
TD50 (rat, strain Fischer 344, males, by gavage, site: stomach, glandular, lesion: one or several types, types not named, dosed 30 weeks, study length 104 weeks): 0.888 mg/kg/day

CCN(CC)CCCNC(=O)Cn1ncc(-c2ccccc2)c1-c1ccccc1
carcinogen call (rat, strain Charles River CD (Sprague-Dawley), females, by gavage, site: liver, lesion: one or several types, types not named, dosed 52 weeks, study length 52 weeks): negative (inactive)
carcinogen call (rat, strain Charles River CD (Sprague-Dawley), males, by gavage, site: liver, lesion: one or several types, types not named, dosed 52 weeks, study length 52 weeks): negative (inactive)

From PubChem BioAssay AID1745844 (Carcinogenic Potency Database (CPDB), 2022)
